Tests used:
Rattus norvegicus [1] = species on record: Rattus norvegicus; assay: Effective dose required to produce an increase in dP/dt5 by 1500 mmHg/s in rats; type: functional
Rattus norvegicus [2] = assay: Maximum increase in dP/dt when administered intravenously in rats at 0.1 mg/kg dose.; type: functional; settings: route intravenous
Canis familiaris [3] = assay: Time after which maximum increase in contractility was observed when administered orally in conscious dogs at 1 mg/kg; type: functional, Canis lupus familiaris; settings: route oral
Canis familiaris [4] = assay: Amount of time during which increase in administered orally in conscious dogs at 1 mg/kg; type: functional, Canis lupus familiaris; settings: route oral
Felis catus [5] = species on record: Felis catus; assay: Effective dose required to produce an increase in dP/dt5 by 1500 mmHg/s in cats; type: functional
Felis catus [6] = assay: Maximum increase in dP/dt when administered intravenously in cats at 0.1 mg/kg dose.; type: functional; settings: route intravenous
Rattus norvegicus [7] = assay: Maximum increase in dP/dt when administered intravenously in rats at 3 mg/kg dose.; type: functional; settings: route intravenous
Canis familiaris [8] = species on record: Canis familiaris; assay: Effective dose required to produce an increase in dP/dt5 by 1500 mmHg/s in dogs; type: functional, Canis lupus familiaris
Felis catus [9] = assay: Maximum increase in dP/dt when administered intravenously in cats at 3 mg/kg dose.; type: functional; settings: route intravenous
Rattus norvegicus [10] = assay: Maximum increase in dP/dt when administered intravenously in rats at 10 mg/kg dose.; type: functional; design: unit not given here; settings: route intravenous
Canis familiaris [11] = assay: Maximum increase in dP/dt when administered intravenously in dogs at 1 mg/kg dose.; type: functional, Canis lupus familiaris; settings: route intravenous
Rattus norvegicus [12] = assay: Maximum increase in dP/dt when administered intravenously in rats at 1 mg/kg dose.; type: functional; design: unit not given here; settings: route intravenous
Canis familiaris [13] = assay: Maximum increase in dP/dt60 when administered orally in dogs at dose 1 mg/kg; type: functional, Canis lupus familiaris; settings: route oral
Canis familiaris [14] = assay: Maximum increase in dP/dt when administered intravenously in dogs at 0.03 mg/kg dose.; type: functional, Canis lupus familiaris; settings: route intravenous
Canis familiaris [15] = assay: Maximum increase in dP/dt when administered intravenously in dogs at 0.3 mg/kg dose.; type: functional, Canis lupus familiaris; settings: route intravenous

Compound: Cn1c(O)nc2cc3c(cc21)C(C)(C)C(=O)N3
- ED1.5 (Rattus norvegicus [1]): 0.03 mg/kg
- Max (Rattus norvegicus [2]): 2.4 mmHg s-1
- Time (Canis familiaris [3]): 30 min
- Duration (Canis familiaris [4]): > 5 h
- ED1.5 (Felis catus [5]): 0.02 mg/kg
- Max (Felis catus [6]): 2.1 mmHg s-1

Compound: CCn1c(O)nc2cc3[nH]c(-c4ccnnc4)nc3cc21
- ED1.5 (Rattus norvegicus [1]): 0.04 mg/kg
- ED1.5 (Felis catus [5]): 0.02 mg/kg
- Max (Rattus norvegicus [7]): 3.2 mHg s-1

Compound: CC1(C)C(=O)Nc2cc3[nH]c(-c4ccc[nH]4)nc3cc21
- ED1.5 (Rattus norvegicus [1]): 0.45 mg/kg
- ED1.5 (Canis familiaris [8]): 0.32 mg/kg
- Max (Felis catus [9]): 2.3 mmHg s-1
- Max (Rattus norvegicus [10]): 2.6
- ED1.5 (Felis catus [5]): 0.07 mg/kg
- Max (Canis familiaris [11]): 1.9 mHg s-1

Compound: CC1(C)C(=O)Nc2cc3[nH]c(-c4ccncc4)cc3cc21
- ED1.5 (Rattus norvegicus [1]): 0.16 mg/kg
- ED1.5 (Felis catus [5]): 0.11 mg/kg
- Max (Rattus norvegicus [7]): 3.4 mHg s-1

Compound: CC1(C)C(=O)Nc2cc3[nH]c(C(F)(F)F)nc3cc21
- ED1.5 (Rattus norvegicus [1]): 0.13 mg/kg
- ED1.5 (Felis catus [5]): 0.08 mg/kg
- Max (Rattus norvegicus [7]): 2.3 mHg s-1

Compound: Cn1c(O)nc2cc3[nH]c(-c4ccnnc4)nc3cc21
- ED1.5 (Rattus norvegicus [1]): 0.19 mg/kg
- Duration (Canis familiaris [4]): 0 h
- Max (Rattus norvegicus [12]): 2.7

Compound: C=C(C)c1nc2cc3c(cc2[nH]1)C(C)(C)C(=O)N3
- ED1.5 (Rattus norvegicus [1]): >3 mg/kg

Compound: CC1(C)C(=O)Nc2cc3[nH]c(-c4cccs4)nc3cc21
- ED1.5 (Rattus norvegicus [1]): 0.12 mg/kg
- ED1.5 (Felis catus [5]): 0.07 mg/kg

Compound: Cc1cc2cc3c(cc2[nH]1)NC(=O)C3(C)C
- ED1.5 (Rattus norvegicus [1]): >3 mg/kg

Compound: CN1C(=O)C(C)(C)c2cc3nc(-c4ccncc4)n(C)c3cc21
- ED1.5 (Rattus norvegicus [1]): >3 mg/kg

Compound: CC1(C)C(=O)Nc2cc3[nH]c(-c4ccc(-n5ccnc5)cc4)cc3cc21
- ED1.5 (Rattus norvegicus [1]): >3 mg/kg

Compound: Oc1nc2cc3[nH]c(-c4ccncc4)nc3cc2[nH]1
- ED1.5 (Rattus norvegicus [1]): >3 mg/kg

Compound: Cn1c(-c2ccncc2)nc2cc3c(cc21)NC(=O)C3(C)C
- ED1.5 (Rattus norvegicus [1]): >3 mg/kg

Compound: CC1(C)C(=O)Nc2cc3[nH]c(-c4cnsn4)nc3cc21
- ED1.5 (Rattus norvegicus [1]): 0.007 mg/kg
- Time (Canis familiaris [3]): 10 min
- Duration (Canis familiaris [4]): 3 h
- Max (Canis familiaris [13]): 3 mmHg s-1
- ED1.5 (Canis familiaris [8]): 0.008 mg/kg
- ED1.5 (Felis catus [5]): 0.004 mg/kg
- Max (Canis familiaris [14]): 2.3 mmHg s-1
- Max (Rattus norvegicus [12]): 3.5
- Max (Felis catus [6]): 2.6 mmHg s-1

Compound: CC1(C)C(=O)Nc2cc3[nH]c(C4CCCCC4)nc3cc21
- ED1.5 (Rattus norvegicus [1]): >3 mg/kg

Compound: COc1ccc(-c2nc3cc(C4=NNC(=O)CC4C)ccc3[nH]2)cc1 (centres undefined) [PIMOBENDAN]
- ED1.5 (Rattus norvegicus [1]): 1.3 mg/kg
- Time (Canis familiaris [3]): 30 min
- Duration (Canis familiaris [4]): 6 h
- ED1.5 (Canis familiaris [8]): 1.1 mg/kg
- ED1.5 (Felis catus [5]): 0.6 mg/kg
- Max (Rattus norvegicus [7]): 2 mHg s-1
- Max (Canis familiaris [11]): 1.3 mHg s-1

Compound: CC1(C)C(=O)Nc2cc3[nH]cnc3cc21
- ED1.5 (Rattus norvegicus [1]): 0.19 mg/kg
- ED1.5 (Felis catus [5]): 0.13 mg/kg
- Max (Rattus norvegicus [7]): 3.2 mHg s-1

Compound: CC1(C)C(=O)Nc2cc3[nH]c(N)nc3cc21
- ED1.5 (Rattus norvegicus [1]): >3 mg/kg

Compound: COc1ccccc1-c1nc2cc3c(cc2[nH]1)C(C)(C)C(=O)N3
- ED1.5 (Rattus norvegicus [1]): >3 mg/kg
- ED1.5 (Felis catus [5]): >3 mg/kg

Compound: Oc1nc2cc3nc(-c4ccncc4)[nH]c3cc2o1
- ED1.5 (Rattus norvegicus [1]): 0.52 mg/kg
- Duration (Canis familiaris [4]): 0 h
- ED1.5 (Canis familiaris [8]): 0.12 mg/kg
- Max (Rattus norvegicus [10]): 4.1
- ED1.5 (Felis catus [5]): 0.06 mg/kg
- Max (Canis familiaris [15]): 2.6 mHg/s

Compound: CN(C)c1ccc(-c2nc3cc4c(cc3[nH]2)C(C)(C)C(=O)N4)cc1
- ED1.5 (Rattus norvegicus [1]): >3 mg/kg

Compound: CC1(C)C(=O)Nc2cc3[nH]c(-c4ccc(-n5ccnc5)cc4)nc3cc21
- ED1.5 (Rattus norvegicus [1]): 1 mg/kg
- Max (Rattus norvegicus [10]): 2.8
- ED1.5 (Felis catus [5]): 0.25 mg/kg

Compound: CC1(C)C(=O)Nc2cc3[nH]c(-c4ccco4)nc3cc21
- ED1.5 (Rattus norvegicus [1]): 0.07 mg/kg
- Time (Canis familiaris [3]): 40 min
- Duration (Canis familiaris [4]): 2 h
- ED1.5 (Canis familiaris [8]): 0.06 mg/kg
- ED1.5 (Felis catus [5]): 0.06 mg/kg
- Max (Rattus norvegicus [7]): 2.9 mHg s-1
- Max (Canis familiaris [15]): 2.7 mHg/s

Compound: CC1(C)C(=O)Nc2cc3[nH]c(-c4ccc(O)nn4)nc3cc21
- ED1.5 (Rattus norvegicus [1]): 0.07 mg/kg
- Max (Rattus norvegicus [7]): 3.3 mHg s-1

Compound: CC1(C)C(=O)Nc2cc3[nH]c(-c4c[nH]cn4)nc3cc21
- ED1.5 (Rattus norvegicus [1]): 0.12 mg/kg
- Time (Canis familiaris [3]): 120 min
- Duration (Canis familiaris [4]): 2 h
- ED1.5 (Canis familiaris [8]): 0.07 mg/kg
- Max (Canis familiaris [11]): 2.7 mHg s-1

Reference: ChEMBL document CHEMBL1124518, “Nonsteroidal cardiotonics. 2. The inotropic activity of linear, tricyclic 5-6-5 fused heterocycles” (1989)
